Data published in paper PMC8552062, “Contributions of UDP-Glucuronosyltransferases to Human Hepatic and Intestinal Metabolism of Ticagrelor and Inhibition of UGTs and Cytochrome P450 Enzymes by Ticagrelor and its Glucuronidated Metabolite” (Frontiers in Pharmacology, 2021).

What was measured:
Assay type in all cases: in vitro ADME
UGT1A6 = molecular target: T1, UGT1A6 (Homo sapiens, UniProt P19224); test: Ticagrelor glucuronidation screen, recombinant human UGT1A6; parameters: purchased BD Gentest; host or cells: baculovirus-infected insect cells; details: 10 μM ticagrelor
T1 sequence (P19224 27-532): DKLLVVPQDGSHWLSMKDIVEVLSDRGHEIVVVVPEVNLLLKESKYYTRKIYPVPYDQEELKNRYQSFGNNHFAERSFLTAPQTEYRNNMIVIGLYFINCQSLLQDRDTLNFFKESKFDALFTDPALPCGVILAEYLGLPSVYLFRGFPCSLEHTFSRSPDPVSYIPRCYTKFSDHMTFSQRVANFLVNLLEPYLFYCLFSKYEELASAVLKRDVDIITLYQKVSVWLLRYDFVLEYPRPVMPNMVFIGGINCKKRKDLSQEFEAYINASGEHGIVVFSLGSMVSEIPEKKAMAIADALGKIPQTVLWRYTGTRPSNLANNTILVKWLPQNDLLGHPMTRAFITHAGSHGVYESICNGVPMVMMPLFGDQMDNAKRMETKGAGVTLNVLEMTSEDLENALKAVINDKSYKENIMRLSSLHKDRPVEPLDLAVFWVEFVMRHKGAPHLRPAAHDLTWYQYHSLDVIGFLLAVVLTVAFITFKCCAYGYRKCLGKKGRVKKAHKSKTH
Procedure: (§1) Ticagrelor glucuronidation was investigated in an in vitro incubation system by using HLM, HIM, and recombinant human UGTs. The incubation system consisted of enzyme sources (HLM, HIM, or human recombinant UGTs), various concentrations of ticagrelor (dissolved in 50% methanol, 1% v/v, 1, 2, 5, 10, 20, 50, 100, 200, 500 μM of final concentration), alamethicin (50 μg/mg protein), 5 mM MgCl2, 100 mM tris-HCL buffer (pH 7.4), and 5 mM UDPGA in a total volume of 100 μl. Alamethicin is a pore-forming polypeptide used to activate UGTs in HLM and HIM ([Fisher et al., 2000]). Preliminary studies were conducted to determine the optimal protein concentrations and incubation times. Linear conditions of ticagrelor-O-Glu formation from ticagrelor, i.e., HLM, 0.2 mg of protein/ml and 60 min, HIM, 0.2 mg of protein/ml and 60 min, and recombinant human UGTs, 0.2 mg of protein/ml and 60 min were selected. The incubation mixture without UDPGA was placed on ice for 15 min to activate UGT by alamethicin. After pre-incubation for 5 min at 37°C, the reactions were started by the addition of UDPGA. After another 60 min of incubation at 37°C, the reaction was terminated by adding 100 μl of acetonitrile containing internal standard (diazepam). The mixture vortexed for 2 min and then centrifuged at 14,000 rpm for 10 min at 4°C. […]

[1] = molecular target: T2, recombinant human UGT2B17 (Homo sapiens, UniProt O75795); test: Ticagrelor glucuronidation screen, recombinant human UGT2B17; details: 10 μM ticagrelor
T2 construct: purchased BD Gentest; host or cells: baculovirus-infected insect cells
T2 sequence (O75795 24-530): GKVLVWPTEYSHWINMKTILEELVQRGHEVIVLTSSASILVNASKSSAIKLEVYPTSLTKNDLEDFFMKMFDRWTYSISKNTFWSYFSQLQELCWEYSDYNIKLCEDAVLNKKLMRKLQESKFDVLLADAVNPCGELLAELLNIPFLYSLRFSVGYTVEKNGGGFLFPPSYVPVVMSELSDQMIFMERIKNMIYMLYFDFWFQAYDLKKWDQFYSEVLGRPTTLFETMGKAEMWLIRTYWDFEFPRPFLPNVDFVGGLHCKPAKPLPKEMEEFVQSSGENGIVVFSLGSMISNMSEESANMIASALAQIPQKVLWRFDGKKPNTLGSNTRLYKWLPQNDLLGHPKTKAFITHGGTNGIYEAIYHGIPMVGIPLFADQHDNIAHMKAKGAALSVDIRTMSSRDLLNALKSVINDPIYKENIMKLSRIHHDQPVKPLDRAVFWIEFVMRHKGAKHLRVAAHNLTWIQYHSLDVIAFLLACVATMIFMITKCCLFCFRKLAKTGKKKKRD
Procedure: as §1

UGT1A3 = molecular target: T3, UGT1A3 (Homo sapiens, UniProt P35503); test: Ticagrelor glucuronidation by recombinant human UGT1A3; parameters: purchased BD Gentest; host or cells: baculovirus-infected insect cells; details: recombinant human UGT1A3, pH 7.4
T3 sequence (P35503 29-534): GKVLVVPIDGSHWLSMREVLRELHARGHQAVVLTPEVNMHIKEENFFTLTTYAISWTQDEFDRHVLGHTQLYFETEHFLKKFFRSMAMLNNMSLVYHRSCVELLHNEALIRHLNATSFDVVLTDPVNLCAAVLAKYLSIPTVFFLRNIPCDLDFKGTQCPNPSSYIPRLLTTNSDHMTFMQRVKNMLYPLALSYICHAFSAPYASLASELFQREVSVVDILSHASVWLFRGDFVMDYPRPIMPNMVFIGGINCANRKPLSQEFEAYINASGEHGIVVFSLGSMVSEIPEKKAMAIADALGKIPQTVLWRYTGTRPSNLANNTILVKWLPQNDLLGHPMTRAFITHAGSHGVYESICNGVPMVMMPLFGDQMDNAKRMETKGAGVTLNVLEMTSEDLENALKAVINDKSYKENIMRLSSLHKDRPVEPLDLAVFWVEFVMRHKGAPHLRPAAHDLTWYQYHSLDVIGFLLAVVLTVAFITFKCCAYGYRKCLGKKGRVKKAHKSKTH
Procedure: as §1, with “alamethicin.” for “alamethicin. After pre-incubation for 5 min at 37°C, the reactions were started by the addition of UDPGA. After another 60 min of incubation at 37°C, the reaction was terminated by adding 100 μl of acetonitrile containing internal standard (diazepam). The mixture vortexed for 2 min and then centrifuged at 14,000 rpm for 10 min at 4°C.”
(§2) Kinetic analyses were performed using the mean values of triplicate determinations with either pooled HLM, HIM, or recombinant human UGTs. All data were analyzed by nonlinear regression analysis using the GraphPad Prism 6 (GraphPad Software Inc., CA, United States). […] Intrinsic clearance (CLint) was calculated by dividing Vmax by Km.

UGT1A4 = molecular target: T4, UGT1A4 (Homo sapiens, UniProt P22310); test: Ticagrelor glucuronidation by recombinant human UGT1A4; parameters: purchased BD Gentest; host or cells: baculovirus-infected insect cells; details: recombinant human UGT1A4, pH 7.4
T4 sequence (P22310 29-534): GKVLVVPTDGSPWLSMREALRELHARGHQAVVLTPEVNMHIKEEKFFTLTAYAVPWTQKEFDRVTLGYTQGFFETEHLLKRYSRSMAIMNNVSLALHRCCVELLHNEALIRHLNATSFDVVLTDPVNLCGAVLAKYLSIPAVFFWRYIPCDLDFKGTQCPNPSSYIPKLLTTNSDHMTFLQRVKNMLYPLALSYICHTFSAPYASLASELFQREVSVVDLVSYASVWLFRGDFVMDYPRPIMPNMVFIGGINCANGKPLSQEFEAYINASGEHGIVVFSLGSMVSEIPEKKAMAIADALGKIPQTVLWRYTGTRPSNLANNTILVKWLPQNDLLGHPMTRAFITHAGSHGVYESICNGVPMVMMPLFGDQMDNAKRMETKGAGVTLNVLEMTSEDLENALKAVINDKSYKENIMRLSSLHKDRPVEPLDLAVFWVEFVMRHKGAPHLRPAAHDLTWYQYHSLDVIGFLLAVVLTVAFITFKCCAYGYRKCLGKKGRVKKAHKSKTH
Procedure: as §1, with “alamethicin.” for “alamethicin. After pre-incubation for 5 min at 37°C, the reactions were started by the addition of UDPGA. After another 60 min of incubation at 37°C, the reaction was terminated by adding 100 μl of acetonitrile containing internal standard (diazepam). The mixture vortexed for 2 min and then centrifuged at 14,000 rpm for 10 min at 4°C.”
as §2

- glucuronidation activity for ticagrelor (UGT1A6): no glucuronidation activities
- glucuronidation activity for ticagrelor [1]: no glucuronidation activities
- microsomal CLint (UGT1A3): 0.04 µL/min/mg
- microsomal CLint (UGT1A4): 0.04 µL/min/mg
SMILES: CCCSc1nc(N[C@@H]2C[C@H]2c2ccc(F)c(F)c2)c2nnn([C@@H]3C[C@H](OCCO)[C@@H](O)[C@H]3O)c2n1 [Ticagrelor]
